Laboratory results: patent US11059795B2, “Androgen receptor modulators and methods for their use” (ESSA Pharma, Inc., priority 2018, dated 2021)

Assays:
[1] = Hepatocyte stability assay, mouse hepatocytes; assay type: in vitro ADME; settings: cryopreserved hepatocytes; for hepatocyte CLint at 1 μM: mouse, 1 μM compound, 0.5 million cells/mL, 37° C., read-out: MH +/− NADPH: Clint (μL/min/million cells); for half-life at 1 μM: read-out: Hepatocytes T½ (min) Mouse
In short: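 Cryopreserved rat, human or mouse hepatocytes at 0.5 million cells/mL in DMEM with 1 μM compound, 37° C, sampled at 0, 60, 120 and 180 min and quenched with acetonitrile/formic acid. Parent loss vs 0-min by LC/MS/MS gave t½, and Clint = 0.693/t½ × mL incubation/million cells.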

[2] = target: T1, LBD of estrogen receptor-α (ERα) fused to DBD of GAL4 (Homo sapiens, UniProt P03372); test: LBD-expressing reporter assay (GeneBLAzer), ERα LBD; assay type: cell-based; settings: inhibition of maximal activity attained with agonist; read-out: Steroid Receptor LBD IC50 (μM) ERα
T1 sequence (P03372 311-547 limits assumed): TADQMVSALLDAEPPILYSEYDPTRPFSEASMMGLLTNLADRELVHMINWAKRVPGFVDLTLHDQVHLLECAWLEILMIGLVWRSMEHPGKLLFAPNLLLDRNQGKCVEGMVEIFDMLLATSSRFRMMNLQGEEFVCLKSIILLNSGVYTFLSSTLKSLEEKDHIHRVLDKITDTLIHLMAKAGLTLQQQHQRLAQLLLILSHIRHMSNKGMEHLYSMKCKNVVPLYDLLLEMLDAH
Source text: (§1) This assay uses cells that stably express a chimera fusion protein comprising the LBD of a steroid hormone receptor fused to the DNA-binding domain (DBD) of GAL4 along with beta-lactamase reporter under transcriptional control of an upstream activator sequence (UAS). When agonist binds to the LBD of the GAL4 (DBD)-steroid hormone (LBD) chimera fusion protein, the protein binds to the UAS, resulting in expression of beta-lactamase. LBDs of androgen receptor (AR), progesterone receptor-beta (PRβ), glucocorticoid receptor (GR), estrogen receptor-α (ERα), and estrogen receptor-β (ERβ) were tested and IC50s calculated for inhibiting maximal activity attained with agonist.

[3] = target: T2, LBD of progesterone receptor-beta (PRβ) fused to DBD of GAL4 (Homo sapiens, UniProt P06401); test: LBD-expressing reporter assay (GeneBLAzer), PR LBD; assay type: cell-based; settings: inhibition of maximal activity attained with agonist; read-out: Steroid Receptor LBD IC50 (μM) PR
T2 sequence (P06401 679-913 limits assumed): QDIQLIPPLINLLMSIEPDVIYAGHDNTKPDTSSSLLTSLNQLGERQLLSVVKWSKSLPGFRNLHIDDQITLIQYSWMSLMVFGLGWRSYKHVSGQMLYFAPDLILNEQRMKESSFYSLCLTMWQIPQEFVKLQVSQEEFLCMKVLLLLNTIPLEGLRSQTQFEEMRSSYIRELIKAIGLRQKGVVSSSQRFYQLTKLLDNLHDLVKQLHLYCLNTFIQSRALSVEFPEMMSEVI
Source text: as §1

[4] = target: T3, LBD of glucocorticoid receptor (GR) fused to DBD of GAL4 (Homo sapiens, UniProt P04150); test: LBD-expressing reporter assay (GeneBLAzer), GR LBD; assay type: cell-based; settings: inhibition of maximal activity attained with agonist; read-out: Steroid Receptor LBD IC50 (μM) GR
T3 sequence (P04150 524-758 limits assumed): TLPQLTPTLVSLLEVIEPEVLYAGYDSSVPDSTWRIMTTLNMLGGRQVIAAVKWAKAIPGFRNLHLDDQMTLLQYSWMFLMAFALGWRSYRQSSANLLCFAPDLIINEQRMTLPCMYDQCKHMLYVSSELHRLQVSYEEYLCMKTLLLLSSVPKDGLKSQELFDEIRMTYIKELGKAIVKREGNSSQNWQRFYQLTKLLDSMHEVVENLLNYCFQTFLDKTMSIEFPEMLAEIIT
Source text: as §1

[5] = target: T4, LBD of androgen receptor (AR) fused to DBD of GAL4 (Homo sapiens, UniProt P10275); test: LBD-expressing reporter assay (GeneBLAzer), AR LBD; assay type: cell-based; settings: inhibition of maximal activity attained with agonist; read-out: Steroid Receptor LBD IC50 (μM) AR
T4 sequence (P10275 669-900 limits assumed): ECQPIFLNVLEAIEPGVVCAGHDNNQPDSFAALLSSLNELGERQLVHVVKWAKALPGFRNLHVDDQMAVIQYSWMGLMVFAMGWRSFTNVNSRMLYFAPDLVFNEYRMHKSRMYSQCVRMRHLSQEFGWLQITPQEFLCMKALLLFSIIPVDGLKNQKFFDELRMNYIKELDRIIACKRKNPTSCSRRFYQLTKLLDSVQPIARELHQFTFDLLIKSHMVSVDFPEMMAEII
Source text: as §1

[6] = Hepatocyte stability assay, human hepatocytes; assay type: in vitro ADME; settings: cryopreserved hepatocytes, read-out: Hepatocytes T½ (min) Human
Source text: The […] of in vitro intrinsic clearance (Clint) for drug candidates in the early discovery stage is common practice in the pharmaceutical industry. The Clint values of drug candidates can help to confirm whether metabolism is the main clearance pathway when it is compared with the total body clearance in vivo. Hepatocytes are among the routinely used in vitro systems for measuring clearance. Hepatocytes have been reported to retain most of the phase I and phase II metabolic activities, and therefore, it is a useful tool to estimate the intrinsic clearance for potential drug candidates.
Metabolic stability of testing compound were be evaluated using human and mouse hepatocytes and can also be use rat, mouse, or other animal hepatocytes to predict intrinsic clearance. Cryopreserved hepatocytes were removed from the liquid nitrogen tank and thawed in a 37° C. water bath. As soon as the cells pulled away from the vial wall, they were decanted into 48 ml of warm HT medium. Cells were centrifuged for four minutes at 420 rpm (50 g). After removing the supernatant, pellet was re-suspended in warm DMEM medium. Cell density was counted by a hemacytometer.
The assay was carried out in 96-well microtiter plates. Compounds were incubated for 0, 60, 120, and 180 minutes at 37° C. with hepatocytes. Reaction mixtures (50 μL) contained a final concentration of 1 μM test compound, 0.5 million cells/mL hepatocytes in the DMEM medium. At each of the time points (for example, 0, 1, 2, and 3 hours), 200 μL of quench solution (100% acetonitrile with 0.1% formic acid) with internal standard was transferred to each well. Midazolam was included as a positive control to verify assay performance. Plates were sealed and centrifuged at 4° C. for 15 minutes at 4000 rpm. The supernatant is transferred to fresh plates for LC/MS/MS analysis.
Summarized conditions (customizable): [Compound]=[…], Positive control: midazolam and/or naloxone, [Hepatocyte]=0.5 million cells/Ml, time=0, 60, 120, and 180 min, t=37° C.
All samples were analyzed on LC/MS/MS using an AB Sciex API 4000 instrument, coupled to a Shimadzu LC-20AD LC Pump system. Analytical samples were separated using a Waters Atlantis T3 dC18 reverse phase HPLC column (20 mm×2.1 mm) at a flow rate of 0.5 mL/min. The mobile phase consisted of 0.1% formic acid in water (solvent A) and 0.1% formic acid in 100% acetonitrile (solvent B).
The extent of metabolism was calculated as the disappearance of the test compound, compared to the 0-min control reaction incubations. Initial rates were calculated for the compound concentration and used to determine t½ values and subsequently, the intrinsic clearance, Clint. Clint=(0.693)(1/t½(min))(mL incubation/million cells)

hepatocyte CLint at 1 μM [1] | half-life at 1 μM [1] | IC50 [2] | IC50 [3] | IC50 [4] | IC50 [5] | half-life at 1 μM [6] | Structure (SMILES)
< 4 µL/min/1e6 cells | – | – | – | – | – | – | C[C@H](Oc1ccc(C(C)(C)c2cc(Cl)c(OCCCl)c(C#N)c2)cc1)c1ccnc(NS(C)(=O)=O)n1 (single isomer, unassigned) [Compound A170]
4 to 18 µL/min/1e6 cells | 203 min | > 10 µM | 0.97 µM | > 10 µM | > 10 µM | 290 min | CC(C)(c1ccc(OCc2ocnc2S(C)(=O)=O)cc1)c1cc(Cl)c(OCCCl)c(Cl)c1 [Compound A13, 5-((4-(2-(3,5-dichloro-4-(2-chloroethoxy)phenyl)propan-2-yl)phenoxy)methyl)-4-(methylsulfonyl)oxazole]
4 to 18 µL/min/1e6 cells | 86 min | > 10 µM | 0.93 µM | > 10 µM | > 10 µM | > 360 min | CC(C)(c1ccc(OCc2ocnc2S(C)(=O)=O)cc1)c1cc(Cl)c(OCCCl)c(C#N)c1 [Compound A28, 3-chloro-2-(2-chloroethoxy)-5-(2-(4-((4-(methylsulfonyl)oxazol-5-yl)methoxy)phenyl)propan-2-yl)benzonitrile]
< 4 µL/min/1e6 cells | > 360 min | > 10 µM | 5.07 µM | > 10 µM | > 10 µM | > 360 min | CC(C)(c1ccc(OCc2coc(NS(C)(=O)=O)n2)cc1)c1cc(Cl)c(OCCCl)c(Cl)c1 [Compound A38, N-(4-((4-(2-(3,5-dichloro-4-(2-chloroethoxy)phenyl)propan-2-yl)phenoxy)methyl)oxazol-2-yl)methanesulfonamide]
– | – | > 10 µM | 5.41 µM | 9.51 µM | > 10 µM | > 360 min | CC(C)(c1ccc(OCc2ccnc(NS(C)(=O)=O)n2)cc1)c1cc(Cl)c(OCCCl)c(Cl)c1 [Compound A74, N-(4-((4-(2-(3,5-dichloro-4-(2-chloroethoxy)phenyl)propan-2-yl)phenoxy)methyl)pyrimidin-2-yl)methanesulfonamide]
< 4 µL/min/1e6 cells | > 360 min | > 10 µM | 5.04 µM | > 10 µM | > 10 µM | > 360 min | CC(C)(c1ccc(OCc2ncc(S(C)(=O)=O)s2)cc1)c1cc(Cl)c(OCCCl)c(C#N)c1 [Compound A93, 3-chloro-2-(2-chloroethoxy)-5-(2-(4-((5-(methylsulfonyl)thiazol-2-yl)methoxy)phenyl)propan-2-yl)benzonitrile]
< 4 µL/min/1e6 cells | > 360 min | > 10 µM | 5.61 µM | > 10 µM | > 10 µM | > 360 min | CC(C)(c1ccc(OCc2ccnc(NS(C)(=O)=O)n2)cc1)c1cc(Cl)c(OCCCl)c(C#N)c1 [Compound A109, N-(4-((4-(2-(3-chloro-4-(2-chloroethoxy)-5-cyanophenyl)propan-2-yl)phenoxy)methyl)pyrimidin-2-yl)methanesulfonamide]
4 to 18 µL/min/1e6 cells | – | – | – | – | – | – | Cc1cnc(NS(C)(=O)=O)nc1COc1ccc(C(C)(C)c2cc(Cl)c(OCCCl)c(C#N)c2)cc1 [Compound A122, N-(4-((4-(2-(3-Chloro-4-(2-chloroethoxy)-5-cyanophenyl)propan-2-yl)phenoxy)methyl)-5-methylpyrimidin-2-yl)methanesulfonamide]
< 4 µL/min/1e6 cells | – | – | – | – | – | – | CCS(=O)(=O)Nc1nc(COc2ccc(C(C)(C)c3cc(Cl)c(OCCCl)c(C#N)c3)cc2)co1 [Compound A126]
< 4 µL/min/1e6 cells | – | – | – | – | – | – | CCS(=O)(=O)Nc1nccc(COc2ccc(C(C)(C)c3cc(Cl)c(OCCCl)c(C#N)c3)cc2)n1 [Compound A131]
4 to 18 µL/min/1e6 cells | – | – | – | – | – | – | CC(C)(c1ccc(OCc2nc(S(C)(=O)=O)cs2)cc1)c1cc(Cl)c(OCCCl)c(C#N)c1 [Compound A136, 3-Chloro-2-(2-chloroethoxy)-5-(2-(4-((4-(methylsulfonyl)thiazol-2-yl)methoxy)phenyl)propan-2-yl)benzonitrile]
– | 33 min | 5.82 µM | 4.96 µM | > 10 µM | 9.83 µM | > 360 min | CC(C)(c1ccc(OC[C@H](O)CNS(C)(=O)=O)cc1)c1cc(Cl)c(OC[C@H](O)CCl)c(Cl)c1 [X, reference compound]
